Results reported in patent US4238566A (priority 1980, dated 1980).

Key:
Type in all cases: biochemical
[1] = target: T1, Bovine milk xanthine oxidase (E.C. 1.2.3.2.), XO concentrate of this invention, E280/E450 ratio 2.0 to 4.1 (Bos taurus, UniProt P80457); assay: Kinetic parameters (Km, Vmax, KI) of XO concentrate of this invention; settings: for Vmax with hypoxanthine / Vmax with xanthine: XO of this invention
T1 construct: Bovine milk XO was purified using three different methods; from tissue; host or cells: bovine milk (purified in-house by the method of the invention)
Method: (§1) Bovine milk XO was purified using three different methods and the purified XO enzyme concentrate preparation from each method was assayed for its kinetic parameters.
(§2) The first method used was that of Horecker and Heppel (Methods in Enzymology, Vol. 2, pp. 482-485, 1955). […] The second method was that of Waud et al. (Arch. Biochem. and Biophys., Vol. 169, pp. 695-701, 1975). […] The third method was that described above for the preparation of the XO concentrate of this invention.
(§3) The concentration of the substrate was varied over a gradient of initial concentrations of one to nine millimolar. […] Three replicates of each assay were performed at each concentration of substrate. Buffer pH was monitored constantly and the percent oxygen saturation was maintained at approximately 75%. Lineweaver-Burk and Hanes plots were then constructed from the collected data.
(§4) Lineweaver-Burk and Hanes plots were constructed from the data and both Km and Vmax determined therefrom.
(§5) Experimental conditions for this part of the study were similar to the preceding experiments. […] From the collected data, Lineweaver-Burk plots for competitive inhibition were constructed.

[2] = target: T2, Bovine milk xanthine oxidase (E.C. 1.2.3.2.), XO concentrate by prior art 1 (Horecker and Heppel 1955), E280/E450 ratio 6.1 (Bos taurus, UniProt P80457); assay: Kinetic parameters (Km, Vmax, KI) of XO concentrate prepared by prior art method of Horecker and Heppel; settings: for Vmax with hypoxanthine / Vmax with xanthine: XO by prior art 1
T2 construct: Bovine milk XO was purified using three different methods; from tissue; host or cells: bovine milk (purified in-house by the method of Horecker and Heppel 1955)
Method: as §1, §2, §3, §4, §5

[3] = target: T3, Bovine milk xanthine oxidase (E.C. 1.2.3.2.), XO concentrate by prior art 2 (Waud et al. 1975), E280/E450 ratio 4.8 (Bos taurus, UniProt P80457); assay: Kinetic parameters (Km, Vmax, KI) of XO concentrate prepared by prior art method of Waud et al.; settings: for Vmax with hypoxanthine / Vmax with xanthine: XO by prior art 2
T3 construct: Bovine milk XO was purified using three different methods; from tissue; host or cells: bovine milk (purified in-house by the method of Waud et al. 1975)
Method: as §1, §2, §3, §4, §5

T3 sequence (P80457 whole entry): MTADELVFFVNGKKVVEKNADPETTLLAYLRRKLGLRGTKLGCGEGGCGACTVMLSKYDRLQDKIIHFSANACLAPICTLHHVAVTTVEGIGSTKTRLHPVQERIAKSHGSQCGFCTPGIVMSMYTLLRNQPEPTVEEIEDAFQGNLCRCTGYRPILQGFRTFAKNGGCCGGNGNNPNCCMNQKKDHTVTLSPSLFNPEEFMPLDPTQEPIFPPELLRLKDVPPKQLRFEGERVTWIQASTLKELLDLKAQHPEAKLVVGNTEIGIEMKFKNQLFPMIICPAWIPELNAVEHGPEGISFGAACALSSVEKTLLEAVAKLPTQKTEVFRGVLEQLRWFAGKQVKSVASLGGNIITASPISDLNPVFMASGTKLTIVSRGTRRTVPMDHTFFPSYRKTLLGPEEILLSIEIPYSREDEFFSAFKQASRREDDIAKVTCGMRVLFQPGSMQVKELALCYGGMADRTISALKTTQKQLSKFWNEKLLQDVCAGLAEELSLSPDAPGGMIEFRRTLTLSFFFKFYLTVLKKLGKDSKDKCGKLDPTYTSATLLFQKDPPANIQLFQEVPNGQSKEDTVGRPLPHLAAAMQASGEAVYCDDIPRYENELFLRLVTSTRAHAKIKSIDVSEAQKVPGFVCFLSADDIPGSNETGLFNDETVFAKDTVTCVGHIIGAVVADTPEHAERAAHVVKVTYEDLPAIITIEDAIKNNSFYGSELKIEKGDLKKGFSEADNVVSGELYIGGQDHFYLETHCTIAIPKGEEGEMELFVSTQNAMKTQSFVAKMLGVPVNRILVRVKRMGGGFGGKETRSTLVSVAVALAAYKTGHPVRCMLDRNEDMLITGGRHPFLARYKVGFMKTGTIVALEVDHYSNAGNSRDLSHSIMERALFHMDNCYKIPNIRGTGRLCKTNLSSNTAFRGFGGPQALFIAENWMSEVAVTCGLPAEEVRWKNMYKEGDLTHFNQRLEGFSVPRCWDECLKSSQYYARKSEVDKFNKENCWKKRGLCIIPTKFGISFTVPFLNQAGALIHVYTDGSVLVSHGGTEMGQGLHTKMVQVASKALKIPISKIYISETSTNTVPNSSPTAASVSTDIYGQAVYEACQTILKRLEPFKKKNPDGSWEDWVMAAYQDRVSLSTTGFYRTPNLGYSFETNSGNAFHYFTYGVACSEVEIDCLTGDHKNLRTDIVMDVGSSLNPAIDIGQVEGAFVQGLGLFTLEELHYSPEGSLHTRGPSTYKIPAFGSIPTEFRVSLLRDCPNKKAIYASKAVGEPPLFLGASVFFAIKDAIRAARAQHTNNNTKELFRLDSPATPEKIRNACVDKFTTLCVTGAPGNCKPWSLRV
T1 sequence (P80457 whole entry): as above
T2 sequence (P80457 whole entry): as above

Compound `Nc1nc2ncc(CNc3ccc(C(=O)N[C@@H](CCC(=O)O)C(=O)O)cc3)nc2c(=O)[nH]1` [folic acid] has a Ki ([1]; read-out: KI with folic acid) of 1150 nM, a Ki [2] of 1790 nM and a Ki [3] of 1690 nM.

Compound `O=c1[nH]cnc2nc[nH]c12` [hypoxanthine] has a Vmax with hypoxanthine ([1]; pH 8.3) of 1.47 I.U, a Vmax with hypoxanthine ([1]; pH 8.7) of 0.666 I.U and a Vmax with hypoxanthine ([2]; pH 8.3) of 1.25 I.U. The Vmax with hypoxanthine ([2]; pH 8.7) was 0.448 I.U, the Vmax with hypoxanthine ([3]; pH 8.3) was 1.31 I.U and the Vmax with hypoxanthine ([3]; pH 8.7) was 0.463 I.U.

`O=c1[nH]c(=O)c2[nH]cnc2[nH]1` [xanthine] gave a Vmax with xanthine ([1]; pH 8.3) of 4.76 I.U, a Vmax with xanthine ([1]; pH 8.7) of 3.125 I.U and a Vmax with xanthine ([2]; pH 8.3) of 2.0 I.U. It also gave a Vmax with xanthine ([2]; pH 8.7) of 2.03 I.U, a Vmax with xanthine ([3]; pH 8.3) of 2.8 I.U and a Vmax with xanthine ([3]; pH 8.7) of 2.16 I.U.
